From PubChem BioAssay (NCI)
Where “and” joins values, the source holds several entries; their conditions need not be identical. Equal values may be shown once.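 Values below derive from 48-hour exposures of cells grown in 96-well plates, with endpoints linearly interpolated between the two concentrations bracketing the appropriate inhibition level. GI50 is the concentration that inhibits growth by half. TGI: concentration producing complete growth inhibition.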

Key:
Experiment in all cases: DTP human tumour cell line panel, 48 h
786-0 renal = test system: 786-0 renal
A498 renal = test system: A498 renal
A549 NSCLC = test system: A549 NSCLC
ACHN renal = test system: ACHN renal
BT-549 breast = test system: BT-549 breast
CAKI-1 renal = test system: CAKI-1 renal
CCRF-CEM leukemia = test system: CCRF-CEM leukemia
COLO 205 colon = test system: COLO 205 colon
DU-145 prostate = test system: DU-145 prostate
EKVX NSCLC = test system: EKVX NSCLC
HCC-2998 colon = test system: HCC-2998 colon
HCT-116 colon = test system: HCT-116 colon
HCT-15 colon = test system: HCT-15 colon
HL-60(TB) leukemia = test system: HL-60(TB) leukemia
HOP-62 NSCLC = test system: HOP-62 NSCLC
HOP-92 NSCLC = test system: HOP-92 NSCLC
HS 578T breast = test system: HS 578T breast
HT29 colon = test system: HT29 colon
IGROV1 ovarian = test system: IGROV1 ovarian
K-562 leukemia = test system: K-562 leukemia
KM12 colon = test system: KM12 colon
LOX IMVI melanoma = test system: LOX IMVI melanoma
M14 melanoma = test system: M14 melanoma
MALME-3M melanoma = test system: MALME-3M melanoma
MCF7 breast = test system: MCF7 breast
MDA-MB-231 breast = test system: MDA-MB-231 breast
MDA-MB-435 = test system: MDA-MB-435
MOLT-4 leukemia = test system: MOLT-4 leukemia
NCI-H226 lung = test system: NCI-H226 lung
NCI-H23 lung = test system: NCI-H23 lung
NCI-H460 lung = test system: NCI-H460 lung
NCI-H522 lung = test system: NCI-H522 lung
NCI/ADR-RES ovarian = test system: NCI/ADR-RES ovarian
OVCAR-3 ovarian = test system: OVCAR-3 ovarian
OVCAR-4 ovarian = test system: OVCAR-4 ovarian
OVCAR-5 ovarian = test system: OVCAR-5 ovarian
OVCAR-8 ovarian = test system: OVCAR-8 ovarian
PC-3 prostate = test system: PC-3 prostate
RPMI-8226 leukemia = test system: RPMI-8226 leukemia
SF-268 CNS = test system: SF-268 CNS
SF-295 CNS = test system: SF-295 CNS
SF-539 CNS = test system: SF-539 CNS
SK-MEL-2 melanoma = test system: SK-MEL-2 melanoma
SK-MEL-28 melanoma = test system: SK-MEL-28 melanoma
SK-MEL-5 melanoma = test system: SK-MEL-5 melanoma
SK-OV-3 ovarian = test system: SK-OV-3 ovarian
SN12C renal = test system: SN12C renal
SNB-19 CNS = test system: SNB-19 CNS
SR leukemia = test system: SR leukemia
SW-620 colon = test system: SW-620 colon
T-47D breast = test system: T-47D breast
TK-10 renal = test system: TK-10 renal
U251 CNS = test system: U251 CNS
UACC-257 melanoma = test system: UACC-257 melanoma
UACC-62 melanoma = test system: UACC-62 melanoma
UO-31 renal = test system: UO-31 renal

Structure (SMILES): CCN(CCO)CCCOc1ccc2c(Nc3cc(CC(=O)Nc4cccc(F)c4)[nH]n3)ncnc2c1
- GI50 (786-0 renal): > 70.1 µM
- TGI (786-0 renal): > 100 µM
- GI50 (A498 renal): > 49.1 µM
- TGI (A498 renal): > 100 µM
- GI50 (A549 NSCLC): 20.5 µM
- TGI (A549 NSCLC): > 100 µM
- GI50 (ACHN renal): > 100 µM
- TGI (ACHN renal): > 100 µM
- GI50 (BT-549 breast): 13 µM
- TGI (BT-549 breast): 29.7 µM and > 3.6 µM
- GI50 (CAKI-1 renal): > 36.5 µM
- TGI (CAKI-1 renal): > 100 µM
- GI50 (CCRF-CEM leukemia): < 0.01 µM and 0.0047 µM
- TGI (CCRF-CEM leukemia): 47.9 µM and > 5.1 µM
- GI50 (COLO 205 colon): 0.034 µM and 0.0244 µM
- TGI (COLO 205 colon): 1.22 µM
- GI50 (DU-145 prostate): 34.5 µM
- TGI (DU-145 prostate): > 100 µM
- GI50 (EKVX NSCLC): 84.1 µM
- TGI (EKVX NSCLC): > 100 µM
- GI50 (HCC-2998 colon): 20.8 µM
- TGI (HCC-2998 colon): 61.9 µM and > 3.75 µM
- GI50 (HCT-116 colon): 9.63 µM
- TGI (HCT-116 colon): 34.6 µM and > 10 µM
- GI50 (HCT-15 colon): > 100 µM
- TGI (HCT-15 colon): > 100 µM
- GI50 (HL-60(TB) leukemia): 13 µM
- TGI (HL-60(TB) leukemia): 40.4 µM
- GI50 (HOP-62 NSCLC): 16.3 µM
- TGI (HOP-62 NSCLC): > 88.6 µM
- GI50 (HOP-92 NSCLC): 10.6 µM
- TGI (HOP-92 NSCLC): 33.3 µM
- GI50 (HS 578T breast): 8.15 µM
- TGI (HS 578T breast): > 60.5 µM
- GI50 (HT29 colon): 13.4 µM
- TGI (HT29 colon): 66.2 µM and > 10 µM
- GI50 (IGROV1 ovarian): 26.1 µM
- TGI (IGROV1 ovarian): > 93.1 µM
- GI50 (K-562 leukemia): 8.89 µM
- TGI (K-562 leukemia): > 78.4 µM
- GI50 (KM12 colon): 3.45 µM and 0.82 µM
- TGI (KM12 colon): 16 µM and > 10 µM
- GI50 (LOX IMVI melanoma): 10.6 µM
- TGI (LOX IMVI melanoma): 32.2 µM and > 3.26 µM
- GI50 (M14 melanoma): 20.9 µM
- TGI (M14 melanoma): > 56.2 µM
- GI50 (MALME-3M melanoma): 8.04 µM
- TGI (MALME-3M melanoma): 26.8 µM
- TGI (MCF7 breast): 22.5 µM and > 4.11 µM
- GI50 (MDA-MB-231 breast): 19.2 µM
- TGI (MDA-MB-231 breast): > 51.5 µM
- GI50 (MDA-MB-435): 14.1 µM
- TGI (MDA-MB-435): 34 µM
- GI50 (MOLT-4 leukemia): 3.38 µM
- TGI (MOLT-4 leukemia): > 88.4 µM
- GI50 (NCI-H226 lung): 23.8 µM
- TGI (NCI-H226 lung): > 100 µM
- GI50 (NCI-H23 lung): 17.4 µM
- TGI (NCI-H23 lung): > 53.1 µM
- GI50 (NCI-H460 lung): 0.071 µM and 0.0456 µM
- TGI (NCI-H460 lung): 21.3 µM and > 3.81 µM
- TGI (NCI-H522 lung): 37.2 µM and > 4.22 µM
- GI50 (NCI/ADR-RES ovarian): > 100 µM
- TGI (NCI/ADR-RES ovarian): > 100 µM
- GI50 (OVCAR-3 ovarian): 10.9 µM
- TGI (OVCAR-3 ovarian): 42.9 µM and > 4.07 µM
- GI50 (OVCAR-4 ovarian): 19.4 µM
- TGI (OVCAR-4 ovarian): > 100 µM
- GI50 (OVCAR-5 ovarian): 42.3 µM
- TGI (OVCAR-5 ovarian): > 100 µM
- GI50 (OVCAR-8 ovarian): 23.8 µM
- TGI (OVCAR-8 ovarian): > 100 µM
- GI50 (PC-3 prostate): 17.7 µM
- TGI (PC-3 prostate): > 64.8 µM
- GI50 (RPMI-8226 leukemia): 15.4 µM
- TGI (RPMI-8226 leukemia): 47.8 µM and > 2.17 µM
- GI50 (SF-268 CNS): 9.62 µM
- TGI (SF-268 CNS): 32.2 µM and > 10 µM
- TGI (SF-295 CNS): > 100 µM
- TGI (SF-539 CNS): 22.2 µM and > 2.7 µM
- GI50 (SK-MEL-2 melanoma): 16.9 µM
- TGI (SK-MEL-2 melanoma): 35.4 µM and > 2.16 µM
- GI50 (SK-MEL-28 melanoma): 16.4 µM
- TGI (SK-MEL-28 melanoma): 31.4 µM
- GI50 (SK-MEL-5 melanoma): 19.8 µM
- TGI (SK-MEL-5 melanoma): 48.5 µM and > 3.51 µM
- GI50 (SK-OV-3 ovarian): 15.6 µM
- TGI (SK-OV-3 ovarian): > 57.1 µM
- GI50 (SN12C renal): 19.8 µM
- TGI (SN12C renal): > 100 µM
- GI50 (SNB-19 CNS): 15.4 µM
- TGI (SNB-19 CNS): > 60.6 µM
- TGI (SR leukemia): 28 µM and > 3.87 µM
- GI50 (SW-620 colon): 7.23 µM
- TGI (SW-620 colon): 29.8 µM and > 4.11 µM
- GI50 (T-47D breast): 13.9 µM
- TGI (T-47D breast): 42.7 µM and > 2.45 µM
- GI50 (TK-10 renal): > 67.8 µM
- TGI (TK-10 renal): > 100 µM
- GI50 (U251 CNS): 13.7 µM
- TGI (U251 CNS): 29.4 µM and > 10 µM
- GI50 (UACC-257 melanoma): 12.4 µM
- TGI (UACC-257 melanoma): 29.2 µM and > 2.56 µM
- GI50 (UACC-62 melanoma): 26.1 µM
- TGI (UACC-62 melanoma): > 59.3 µM
- GI50 (UO-31 renal): > 100 µM
- TGI (UO-31 renal): > 100 µM
